# Laboratory results: patent US4179441A, “Fungidal and herbicidal 2-substituted-3-oxa-3aλ^4, 4-dithia-6-halo-1,5-diazapentalene” (Chevron Research Company, priority 1977, dated 1979)
# Read-outs that look alike come from different tables or passages of the source.
# Legend:
# [1] = system: Lambsquarter (Chenopodium album); experiment: Post-emergent herbicidal test; format: in vivo; conditions: 0-to-100 scale
# [2] = system: Wild Oats (Avena fatua); experiment: Pre-Emergent herbicidal test; format: in vivo; conditions: 33 micrograms/cm^2, 3 weeks, 0-to-100 scale, 100 = complete kill
# Description: (§1) Pre-emergent herbicidal tests on representative compounds of the invention were made using the following method:
# (§2) An acetone solution of the test compound was prepared by mixing 750 mg of the compound, 220 mg of a nonionic surfactant and 25 ml of acetone. This solution was added to approximately 125 ml of water containing 156 mg of surfactant.
# (§3) Seeds of the test vegetation were planted in a pot of soil and the test solution was sprayed uniformly onto the soil surface at a dose of 33 micrograms/cm^2. The pot was watered and placed in a greenhouse. […] At the end of this period, the herbicidal effectiveness of the compound was rated based on the physiological observations. A 0-to-100 scale was used, 0 representing no phytotoxicity, 100 representing complete kill.
# [3] = system: Mustard (Brassica arvensis); experiment: Pre-Emergent herbicidal test; format: in vivo; conditions: 33 micrograms/cm^2, 3 weeks, 0-to-100 scale, 100 = complete kill
# Description: as §1, §2, §3
# [4] = system: Lambsquarter (Chenopodium album); experiment: Pre-Emergent herbicidal test; format: in vivo; conditions: 33 micrograms/cm^2, 3 weeks, 0-to-100 scale, 100 = complete kill
# Description: as §1, §2, §3
# [5] = system: Crabgrass (Digitaria sanguinalis); experiment: Pre-Emergent herbicidal test; format: in vivo; conditions: 33 micrograms/cm^2, 3 weeks, 0-to-100 scale, 100 = complete kill
# Description: as §1, §2, §3
# [6] = system: Watergrass (Echinochloa crusgalli); experiment: Pre-Emergent herbicidal test; format: in vivo; conditions: 33 micrograms/cm^2, 3 weeks, 0-to-100 scale, 100 = complete kill
# Description: as §1, §2, §3
# [7] = system: Crabgrass (Digitaria sanguinalis); experiment: Post-emergent herbicidal test; format: in vivo; conditions: 0-to-100 scale
# [8] = system: Mustard (Brassica arvensis); experiment: Post-emergent herbicidal test; format: in vivo; conditions: 0-to-100 scale
# [9] = system: Watergrass (Echinochloa crusgalli); experiment: Post-emergent herbicidal test; format: in vivo; conditions: 0-to-100 scale
# [10] = system: Wild Oats (Avena fatua); experiment: Post-emergent herbicidal test; format: in vivo; conditions: 0-to-100 scale
# [11] = system: Erysiphe polygoni; experiment: Powdery Mildew (bean seedlings); format: in vivo; conditions: 240 h, 250 ppm spray on bean seedlings, about 10 days, relative to untreated check plants
# Description: The powdery mildew test was made using bean seedlings (var. Bountiful) with well-developed primary leaves. The pathogen was Erysiphe polygoni. The bean seedlings were sprayed with a 250 ppm solution of the test compound in an acetone-water mixture containing a nonionic emulsifier. The treated plants were inoculated one day after spray application of the test compound with the pathogen. […] The rate of infection on the leaves was made after about 10 days. The percent disease control provided by a given test compound was based on the disease reduction relative to untreated check plants.
# [12] = system: Botrytis cinerea; experiment: Botrytis cinerea control (detached horsebean leaves); format: in vivo; conditions: 3 to 5 days
# Description: Compounds of the invention were tested for Botrytis cinerea control using detached, well-developed primary leaves of a 4-6 week old horsebean plant. […] The leaves were allowed to dry while the filter paper was kept moist by adding water as required. The treated leaves were then inoculated with the spores of Botrytis cinerea fungus grown on potato. The plate was covered after inoculation and kept at 23.5° C. The filter-paper lining of the plate was kept saturated with water throughout the test. The rate of disease incidence was determined in 3 to 5 days, when the disease symptoms were fully evident on non-treated check leaves. […]
# [13] = system: Phytophthora infestans; experiment: whole plant or invertebrate; format: in vivo; conditions: in Solanum lycopersicum, 168 h, read-out: Tomato Late Blight % Control
# [14] = system: Alternaria solani; experiment: Tomato Early Blight; format: in vivo; conditions: 288 h, read-out: Tomato Early blight % Control
# [15] = system: Pythium ultimum; experiment: Mycelia Inhibition; format: cell-based; conditions: mycelial inhibition, 25° C., 24 hours
# [16] = system: Rhizoctonia solani; experiment: Mycelia Inhibition; format: cell-based; conditions: mycelial inhibition, 25° C., 24 hours
# [17] = system: Fusarium moniliforme; experiment: Mycelia Inhibition; format: cell-based; conditions: mycelial inhibition, 25° C., 24 hours
# [18] = system: Aspergillus niger; experiment: Mycelia Inhibition; format: cell-based; conditions: mycelial inhibition, 25° C., 24 hours
# [19] = system: Septoria apii; conditions: in vivo
# [20] = 250 ppm spray, inoculated one day later, based on untreated check plants
SMILES,pest or weed control at 250 ppm [11] [%],pest or weed control at 250 ppm [13] [%],"pest or weed control at 250 ppm [14, 20] [%]","Rhizoctonia solani, micrograms/cm^2 for 99% control of the fungus [16] [micrograms/cm^2]","Fusarium moniliforme, micrograms/cm^2 for 99% control of the fungus [17] [micrograms/cm^2]","Aspergillus niger, micrograms/cm^2 for 99% control of the fungus [18] [micrograms/cm^2]",also measured
ClC1=NSS2=C1N=C(COc1cc(Cl)ccc1Cl)O2 (centres unmarked) [Compound 27],,,,,,,"Herbicidal Effectiveness - Post, L [1]: 90; Herbicidal Effectiveness - Pre, O [2]: 0; Herbicidal Effectiveness - Pre, M [3]: 87; Herbicidal Effectiveness - Pre, L [4]: 82; Herbicidal Effectiveness - Pre, C [5]: 55; Herbicidal Effectiveness - Pre, W [6]: 55; Herbicidal Effectiveness - Post, C [7]: 90; Herbicidal Effectiveness - Post, M [8]: 80; Herbicidal Effectiveness - Post, W [9]: 0; Herbicidal Effectiveness - Post, O [10]: 0"
N#CSc1cccc(C2=NC3=S(O2)SN=C3Cl)c1 (centres unmarked) [Compound 22],35,,,,,,
Fc1ccccc1C1=NC2=S(O1)SN=C2Cl (centres unmarked) [Compound 2],35,93,,,,,"Botrytis Cinerea, micrograms/cm^2 for 99% control of the fungus [12]: 1.6 micrograms/cm^2"
ClC1=NSS2=C1N=C(COc1ccc(Cl)cc1)O2 (centres unmarked) [Compound 25],29,,,,,,"pest or weed control at 250 ppm [14]: 88%; Herbicidal Effectiveness - Post, L [1]: 85; Herbicidal Effectiveness - Pre, O [2]: 0; Herbicidal Effectiveness - Pre, M [3]: 95; Herbicidal Effectiveness - Pre, L [4]: 90; Herbicidal Effectiveness - Pre, C [5]: 70; Herbicidal Effectiveness - Pre, W [6]: 20; Herbicidal Effectiveness - Post, C [7]: 0; Herbicidal Effectiveness - Post, M [8]: 85; Herbicidal Effectiveness - Post, W [9]: 0; Herbicidal Effectiveness - Post, O [10]: 0"
"ClC1=NSS2=C1N=C(C1CC1)O2 (centres unmarked) [Compound 21, 2-cyclopropyl-3-oxa-3aλ^4,4-dithia-6-chloro-1,5-diazapentalene]",,97,23,,,,
Oc1ccccc1C1=NC2=S(O1)SN=C2Cl (centres unmarked) [Compound 13],,27,51,0.5,> 1.7,0.98,"Pythium ultimum, micrograms/cm^2 for 99% control of the fungus [15]: > 1.7 micrograms/cm^2"
O=[N+]([O-])c1ccc(C2=NC3=S(O2)SN=C3Cl)cc1 (centres unmarked) [Compound 7],,90,23,,,,
ClC1=NSS2=C1N=C(C(Cl)(Cl)Cl)O2 (centres unmarked) [Compound 14],,,21,,,,
ClC1=NSS2=C1N=C(c1cccs1)O2 (centres unmarked) [Compound 12],54,89,68,0.5,> 1.7,1.2,"Botrytis Cinerea, micrograms/cm^2 for 99% control of the fungus [12]: 1.4 micrograms/cm^2; Pythium ultimum, micrograms/cm^2 for 99% control of the fungus [15]: > 1.7 micrograms/cm^2"
ClC1=NSS2=C1N=C(c1ccccc1)O2 (centres unmarked) [Compound 6],100,93,,,,,pest or weed control at 250 ppm [14]: 75%
"ClCC1=NC2=S(O1)SN=C2Cl (centres unmarked) [Compound 5, 2-chloromethyl-3-oxa-3aλ^4,4-dithia-6chloro-1,5-diazapentalene]",,81,73,0.38,> 1.7,1.1,"Pythium ultimum, micrograms/cm^2 for 99% control of the fungus [15]: 0.12 micrograms/cm^2"
"ClC1=NSS2=C1N=C(C(Cl)=C(Cl)Cl)O2 (centres unmarked) [Compound 23, 2-trichlorovinyl-3-oxa-3aλ^4,4-dithia-6-chloro-1,5-diazapentalene]",95,98,,,,,
O=[N+]([O-])c1ccc(Cl)cc1C1=NC2=S(O1)SN=C2Cl (centres unmarked) [Compound 17],,80,,,,,
ClC1=NSS2=C1N=C(c1ccccc1I)O2 (centres unmarked) [Compound 28],69,75,,,,,
ClC1=NSS2=C1N=C(COc1ccc(Cl)cc1Cl)O2 (centres unmarked) [Compound 29],37,,69,,,,"Herbicidal Effectiveness - Post, L [1]: 97; Herbicidal Effectiveness - Pre, O [2]: 0; Herbicidal Effectiveness - Pre, M [3]: 100; Herbicidal Effectiveness - Pre, L [4]: 100; Herbicidal Effectiveness - Pre, C [5]: 97; Herbicidal Effectiveness - Pre, W [6]: 95; Herbicidal Effectiveness - Post, C [7]: 20; Herbicidal Effectiveness - Post, M [8]: 100; Herbicidal Effectiveness - Post, W [9]: 20; Herbicidal Effectiveness - Post, O [10]: 20"
"ClC1=NSS2=C1N=C(CSc1ccc(Cl)cc1)O2 (centres unmarked) [Compound 10, 2-(4-chlorophenylthio-methyl)-3-oxa-3aλ^4,4-dithia-6-chloro-1,5-diazapentalene]",,81,,1.2,> 1.7,0.52,"Pythium ultimum, micrograms/cm^2 for 99% control of the fungus [15]: > 1.7 micrograms/cm^2"
ClC1=NSS2=C1N=C(CSCc1ccc(Cl)cc1)O2 (centres unmarked) [Compound 11],,93,,0.5,> 1.7,0.46,"Pythium ultimum, micrograms/cm^2 for 99% control of the fungus [15]: > 1.7 micrograms/cm^2"
"ClC1=NSS2=C1N=C(c1ccco1)O2 (centres unmarked) [Compound 8, 2-(2-furyl)-3-oxa-3aλ^4,4-dithia-6-chloro-1,5-diazapentalene]",,,56,0.34,0.95,0.49,"Botrytis Cinerea, micrograms/cm^2 for 99% control of the fungus [12]: 0.15 micrograms/cm^2; Pythium ultimum, micrograms/cm^2 for 99% control of the fungus [15]: 0.29 micrograms/cm^2"
ClC1=NSS2=C1N=C(c1c(Cl)cccc1Cl)O2 (centres unmarked) [Compound 15],,,,,,,"Botrytis Cinerea, micrograms/cm^2 for 99% control of the fungus [12]: 1.6 micrograms/cm^2"
ClC1=NSS2=C1N=C(c1ccc(Cl)c(Cl)c1)O2 (centres unmarked) [Compound 1],,60,39,,,,
FC(F)(F)c1cccc(C2=NC3=S(O2)SN=C3Cl)c1 (centres unmarked) [Compound 4],80,,,0.65,> 1.7,> 1.7,"Celery Late Blight % Control [19]: 23%; Pythium ultimum, micrograms/cm^2 for 99% control of the fungus [15]: > 1.7 micrograms/cm^2"
"N#CSCC1=NC2=S(O1)SN=C2Cl (centres unmarked) [Compound 20, 2-thiocyanatomethyl-3-oxa-3aλ^4,4-dithia-6-chloro-1,5-diazapentalene]",,,,0.33,> 1.7,0.6,"Botrytis Cinerea, micrograms/cm^2 for 99% control of the fungus [12]: 0.88 micrograms/cm^2"
ClC1=NSS2=C1N=C(c1ccc(Cl)cc1)O2 (centres unmarked) [Compound 3],76,98,,,,,"Botrytis Cinerea, micrograms/cm^2 for 99% control of the fungus [12]: 1.1 micrograms/cm^2"
ClC1=NSS2=C1N=C(c1cc(Cl)cc(Cl)c1)O2 (centres unmarked) [Compound 16],23,,,,,,
